From US7442788B2, “Antisense molecules and method of controlling expression of gene function by using the same” (Japan Science and Technology Corporation, priority 2001, dated 2008)

System: d(C)8
Assay: Melting temperature (Tm) of homopurine PRNA-DNA complex
Assay type: binding

## NH2-isoGln(5′I)-isoGln(5′I)-isoGln(5′I)-isoGln(5′I)-isoGln(5′I)-isoGln(5′I)-isoGln(5′I)-isoGln(5′I)-Lys-OH [NH2-IIIIIIII-Lys-OH]
Binding target d(C)8, 20 mM borax
  Tm: <−5 °C
Binding target d(C)8, no additive
  Tm: 4.8 °C
